Source: the NIST ThermoML archive (doi:10.1007/s10765-012-1309-7)

Conditions: Liquid, Capillary tube (Ostwald / Ubbelohde) method

CC(C)C [2-methylpropane]
Conditions | kinematic viscosity [m2/s]
285.13 K | 3.1e-07
290.11 K | 2.95e-07
295.11 K | 2.87e-07
300.41 K | 2.72e-07
303.37 K | 2.67e-07
309.08 K | 2.55e-07
313.12 K | 2.46e-07
315.07 K | 2.42e-07
318.2 K | 2.38e-07
320.12 K | 2.35e-07
323.83 K | 2.25e-07
326.11 K | 2.21e-07
330.11 K | 2.14e-07
333.14 K | 2.07e-07
335.12 K | 2.09e-07
340.12 K | 1.97e-07
340.15 K | 1.97e-07
345.15 K | 1.9e-07

CCF [fluoroethane]
Conditions | kinematic viscosity [m2/s]
233.15 K | 2.93e-07
238.15 K | 2.81e-07
243.15 K | 2.7e-07
248.11 K | 2.58e-07
253.15 K | 2.46e-07
258.12 K | 2.37e-07
263.17 K | 2.28e-07
268.16 K | 2.17e-07
273.16 K | 2.09e-07
278.16 K | 2.01e-07
283.15 K | 1.92e-07
288.13 K | 1.85e-07
293.18 K | 1.78e-07
298.15 K | 1.72e-07
303.12 K | 1.66e-07
308.11 K | 1.62e-07
313.15 K | 1.54e-07
318.15 K | 1.51e-07
320.16 K | 1.49e-07
328.16 K | 1.41e-07
333.15 K | 1.37e-07
338.15 K | 1.31e-07
343.13 K | 1.28e-07
348.15 K | 1.23e-07
353.17 K | 1.21e-07
355.16 K | 1.2e-07
360.16 K | 1.16e-07
366.08 K | 1.12e-07
371.36 K | 1.08e-07
